In patent US9260429B2, “Pyrido[3,4-B]indoles and methods of use” (Medivation Technologies, Inc., priority 2008, dated 2016):

Columns and labels:
[1] = molecular target: T1, human recombinant histamine H2 receptor (Homo sapiens, UniProt P25021); assay: Histamine H2 radioligand binding ([125I]Aminopotentidine); settings: 1 μM; inhibition of specific [125I]Aminopotentidine binding; read-out: Binding data (Percentage Inhibition) Histamine Binding (1 μM) H2
T1 construct: expressed in transfected cells; host or cells: CHO-K1 cells
Method: To evaluate in radioligand binding assays the activity of compounds of the invention, human recombinant histamine H2 receptor expressed in Chinese hamster ovary (CHO) K1 cells (Ruat, M., Proc. Natl. Acad. Sci. USA. 87(5):1658, 1990) in a 50 mM Phosphate buffer, pH 7.4 was used. Compounds of the invention were incubated with 0.1 nM [^125I]Aminopotentidine for 120 minutes at 25° C. Non-specific binding was estimated in the presence of 3 μM Tiotidine. Receptor proteins were filtered and washed, the filters were then counted to determine [^125I]Aminopotentidine specifically bound. Compounds were screened at 1 μM or lower, using 1% DMSO as vehicle. Biochemical assay results are presented as the percent inhibition of specific binding in Table 3.

[2] = molecular target: T2, human recombinant serotonin (5-Hydroxytryptamine) 5-HT7 receptor (Homo sapiens, UniProt P34969); assay: Serotonin 5-HT7 radioligand binding ([3H]LSD); settings: 2 h; read-out: Percent Inhibition of ligand binding Serotonin (1 μM ligand concentration) 5-HT7
T2 construct: expressed in transfected cells; host or cells: CHO cells
Method: To evaluate in radioligand binding assays the activity of compounds of the invention, human recombinant serotonin (5-Hydroxytryptamine) 5-HT7 receptor expressed in Chinese hamster ovary (CHO) cells (Roth, B. L. et al., J. Pharmacol. Exp. Ther. 268:1403, 1994; Shen, Y. et al., J. Biol. Chem. 268:18200, 1993) in a modified Tris-HCl buffer (50 mM Tris-HCl, pH 7.4, 10 mM MgCl2, 0.5 mM EDTA) was used. Compounds of invention were incubated with 5.5 nM [^3H]Lysergic acid diethylamide (LSD) for 2 hours at 25° C. Non-specific binding was estimated in the presence of […] Serotonin (5-HT). Receptor proteins were filtered and washed, the filters were then counted to determine [^3H]LSD specifically bound. Compounds were screened at 1 μM or lower, using 1% DMSO as vehicle. Biochemical assay results are presented as the percent inhibition of specific binding in Table 5.

[3] = molecular target: T3, human recombinant serotonin (5-Hydroxytryptamine) 5-HT2C receptor (Homo sapiens, UniProt P28335); assay: Serotonin 5-HT2C radioligand binding ([3H]Mesulergine); settings: 1 h; read-out: Percent Inhibition of ligand binding Serotonin (1 μM ligand concentration) 5-HT2C
T3 construct: expressed in transfected cells; host or cells: CHO-K1 cells
T3 sequence (P28335 33-458): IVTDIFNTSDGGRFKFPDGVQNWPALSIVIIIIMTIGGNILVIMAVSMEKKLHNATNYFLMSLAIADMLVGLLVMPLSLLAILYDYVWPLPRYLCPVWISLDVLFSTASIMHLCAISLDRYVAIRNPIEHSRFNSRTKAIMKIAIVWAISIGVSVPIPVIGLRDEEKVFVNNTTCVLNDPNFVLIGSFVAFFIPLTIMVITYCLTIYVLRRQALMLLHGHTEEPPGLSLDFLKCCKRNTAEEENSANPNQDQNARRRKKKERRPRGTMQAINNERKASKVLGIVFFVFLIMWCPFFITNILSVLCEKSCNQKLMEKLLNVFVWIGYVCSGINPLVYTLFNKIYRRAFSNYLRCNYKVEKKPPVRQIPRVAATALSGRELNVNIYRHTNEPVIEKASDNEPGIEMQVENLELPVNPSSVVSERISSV
Method: Compounds of the invention were incubated with 1 nM [^3H]Mesulergine for 60 minutes at 25° C. Non-specific binding was estimated in the presence of 1 μM Mianserin. Receptor proteins were filtered and washed, the filters were then counted to determine [^3H]Mesulergine specifically bound. […] Biochemical assay results are presented as the percent inhibition of specific binding in Table 5.

[4] = molecular target: T4, human recombinant histamine H1 receptor (Homo sapiens, UniProt P35367); assay: Histamine H1 radioligand binding ([3H]Pyrilamine); settings: 1 μM; read-out: Binding data (Percentage Inhibition) Histamine Binding (1 μM) H1
T4 construct: expressed in transfected cells; host or cells: CHO cells
Method: To evaluate in radioligand binding assays the activity of compounds of the invention, human recombinant histamine H1 receptor expressed in Chinese hamster ovary (CHO) cells (De Backer, M. D. et al., Biochem. Biophys. Res. Comm. 197(3):1601, 1993) in a modified Tris-HCl buffer (50 mM Tris-HCl, pH 7.4, 2 mM MgCl2, 100 mM NaCl, 250 mM Sucrose) was used. Compounds of the invention were incubated with 1.2 nM [^3H]Pyrilamine for 180 minutes at 25° C. Non-specific binding was estimated in the presence of 1 μM pyrilamine. Receptor proteins were filtered and washed, the filters were then counted to determine [^3H]Pyrilamine specifically bound. […] Biochemical assay results are presented as the percent inhibition of specific binding in Table 3.

[5] = molecular target: T5, human recombinant dopamine D2L receptor (Homo sapiens, UniProt P14416); assay: Dopamine D2L radioligand binding ([3H]Spiperone); settings: 2 h, 1 μM ligand conc.; read-out: Percent Inhibition of ligand binding Dopamine (1 μM ligand conc.) D2L
T5 construct: expressed in transfected cells; host or cells: CHO cells
Method: To evaluate in radioligand binding assays the activity of compounds of the invention, human recombinant dopamine D2L receptor expressed in Chinese hamster ovary (CHO) cells (Grandy, D. K. et al. Proc. Natl. Acad. Sci. USA. 86:9762, 1989; Hayes, G. et al., Mol. Endocrinol. 6:920, 1992) in a modified Tris-HCl buffer (50 mM Tris-HCl, pH 7.4, 1.4 mM Ascorbic Acid, 0.001% BSA, 150 mM NaCl) was used. Compounds of the invention were incubated with 0.16 nM [^3H]Spiperone for 120 minutes at 25° C. Non-specific binding was estimated in the presence of […] Haloperidol. Receptor proteins were filtered and washed, the filters were then counted to determine [^3H]Spiperone specifically bound. Compounds were screened at 1 μM or lower, using 1% DMSO as vehicle. Biochemical assay results are presented as the percent inhibition of specific binding in Table 4.

[6] = molecular target: T6, human recombinant serotonin (5-Hydroxytryptamine) 5-HT2A receptor (Homo sapiens, UniProt P28223); assay: Serotonin 5-HT2A radioligand binding ([3H]Ketanserin); settings: 1 h; read-out: Percent Inhibition of ligand binding Serotonin (1 μM ligand concentration) 5-HT2A
T6 construct: expressed in transfected cells; host or cells: CHO-K1 cells
Method: To evaluate in radioligand binding assays the activity of compounds of the invention, human recombinant serotonin (5-Hydroxytryptamine) 5-HT2A receptor expressed in Chinese hamster ovary (CHO-K1) cells (Bonhaus, D. W. et al. Br. J. Pharmacol. 115:622, 1995; Saucier, C. and Albert, P. R., J. Neurochem. 68:1998, 1997) in a 50 mM Tris-HCl buffer, pH 7.4, was used. Compounds of the invention were incubated with 0.5 nM [^3H]Ketanserin for 60 minutes at 25° C. Non-specific binding was estimated in the presence of 1 μM Mianserin. Receptor proteins were filtered and washed, the filters were then counted to determine [^3H]Ketanserin specifically bound. Compounds were screened at 1 μM or lower, using 1% DMSO as vehicle. Biochemical assay results are presented as the percent inhibition of specific binding in Table 5.

[7] = molecular target: T7, human recombinant serotonin (5-Hydroxytryptamine) 5-HT6 receptor (Homo sapiens, UniProt P50406); assay: Serotonin 5-HT6 radioligand binding ([3H]LSD); settings: 2 h; read-out: Percent Inhibition of ligand binding Serotonin (1 μM ligand concentration) 5-HT6
T7 construct: expressed in transfected cells; host or cells: human HeLa cells
Method: To evaluate in radioligand binding assays the activity of compounds of the invention, human recombinant serotonin (5-Hydroxytryptamine) 5-HT6 receptor expressed in human HeLa cells (Monsma, F. J. Jr. et al., Mol. Pharmacol. 43:320, 1993) in a modified Tris-HCl buffer (50 mM Tris-HCl, pH 7.4, 150 mM NaCl, 2 mM Ascorbic Acid, 0.001% BSA) was used. Compounds of the invention were incubated with 1.5 nM [3H]Lysergic acid diethylamide (LSD) for 120 minutes at 37° C. Non-specific binding was estimated in the presence of […] Serotonin (5-HT). Receptor proteins were filtered and washed, the filters were then counted to determine [3H]LSD specifically bound. Compounds were screened at 1 μM or lower, using 1% DMSO as vehicle. Biochemical assay results are presented as the percent inhibition of specific binding in Table 5.

T7 sequence (P50406 whole entry): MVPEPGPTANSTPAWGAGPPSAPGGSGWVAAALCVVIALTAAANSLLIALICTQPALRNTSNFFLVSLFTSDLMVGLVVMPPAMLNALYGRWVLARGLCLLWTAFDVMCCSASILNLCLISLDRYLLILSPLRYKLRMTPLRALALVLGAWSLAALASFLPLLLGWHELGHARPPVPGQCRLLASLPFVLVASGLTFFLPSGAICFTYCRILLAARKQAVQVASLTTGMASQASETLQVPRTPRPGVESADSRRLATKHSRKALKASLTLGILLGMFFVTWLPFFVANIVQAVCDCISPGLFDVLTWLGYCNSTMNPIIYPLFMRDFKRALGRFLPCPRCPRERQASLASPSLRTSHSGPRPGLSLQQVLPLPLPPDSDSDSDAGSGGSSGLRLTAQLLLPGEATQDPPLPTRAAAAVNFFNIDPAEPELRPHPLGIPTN
T4 sequence (P35367 whole entry): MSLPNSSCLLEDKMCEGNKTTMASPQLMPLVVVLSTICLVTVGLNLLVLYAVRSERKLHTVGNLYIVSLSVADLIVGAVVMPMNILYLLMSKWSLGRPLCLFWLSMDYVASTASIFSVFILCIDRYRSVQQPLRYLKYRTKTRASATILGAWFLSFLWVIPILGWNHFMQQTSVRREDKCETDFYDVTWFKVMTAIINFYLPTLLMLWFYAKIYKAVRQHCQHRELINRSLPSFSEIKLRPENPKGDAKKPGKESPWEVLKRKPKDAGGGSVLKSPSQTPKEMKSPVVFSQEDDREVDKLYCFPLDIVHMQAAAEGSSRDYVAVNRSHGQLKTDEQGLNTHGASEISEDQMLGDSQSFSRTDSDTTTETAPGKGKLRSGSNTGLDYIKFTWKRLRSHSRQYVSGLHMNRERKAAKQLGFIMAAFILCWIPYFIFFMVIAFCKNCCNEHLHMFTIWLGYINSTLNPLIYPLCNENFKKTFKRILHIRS
T2 sequence (P34969 whole entry): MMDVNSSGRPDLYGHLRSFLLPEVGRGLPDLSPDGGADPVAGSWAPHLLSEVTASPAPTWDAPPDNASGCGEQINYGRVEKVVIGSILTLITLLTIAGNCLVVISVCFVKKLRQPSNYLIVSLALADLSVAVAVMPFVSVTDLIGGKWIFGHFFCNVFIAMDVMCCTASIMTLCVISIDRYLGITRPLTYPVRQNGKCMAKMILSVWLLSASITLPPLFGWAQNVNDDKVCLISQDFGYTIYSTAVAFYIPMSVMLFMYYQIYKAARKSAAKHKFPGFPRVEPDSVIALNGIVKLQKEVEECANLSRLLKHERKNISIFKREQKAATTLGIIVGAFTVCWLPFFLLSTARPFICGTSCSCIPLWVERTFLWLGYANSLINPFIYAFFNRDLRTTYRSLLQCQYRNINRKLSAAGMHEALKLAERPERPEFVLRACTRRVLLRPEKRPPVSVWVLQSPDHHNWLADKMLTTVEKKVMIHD
T5 sequence (P14416 whole entry): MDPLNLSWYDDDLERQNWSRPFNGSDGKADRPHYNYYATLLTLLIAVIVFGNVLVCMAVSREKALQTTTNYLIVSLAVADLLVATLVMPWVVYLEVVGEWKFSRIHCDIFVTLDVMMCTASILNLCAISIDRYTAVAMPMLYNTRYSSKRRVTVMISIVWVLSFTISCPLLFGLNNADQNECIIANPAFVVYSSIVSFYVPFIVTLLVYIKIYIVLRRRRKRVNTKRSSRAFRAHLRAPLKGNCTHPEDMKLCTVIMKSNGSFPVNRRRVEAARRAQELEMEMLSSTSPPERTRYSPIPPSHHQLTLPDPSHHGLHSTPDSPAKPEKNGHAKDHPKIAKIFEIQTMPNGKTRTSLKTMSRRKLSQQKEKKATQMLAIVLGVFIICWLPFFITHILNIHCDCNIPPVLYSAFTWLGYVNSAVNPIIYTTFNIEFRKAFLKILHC
T6 sequence (P28223 whole entry): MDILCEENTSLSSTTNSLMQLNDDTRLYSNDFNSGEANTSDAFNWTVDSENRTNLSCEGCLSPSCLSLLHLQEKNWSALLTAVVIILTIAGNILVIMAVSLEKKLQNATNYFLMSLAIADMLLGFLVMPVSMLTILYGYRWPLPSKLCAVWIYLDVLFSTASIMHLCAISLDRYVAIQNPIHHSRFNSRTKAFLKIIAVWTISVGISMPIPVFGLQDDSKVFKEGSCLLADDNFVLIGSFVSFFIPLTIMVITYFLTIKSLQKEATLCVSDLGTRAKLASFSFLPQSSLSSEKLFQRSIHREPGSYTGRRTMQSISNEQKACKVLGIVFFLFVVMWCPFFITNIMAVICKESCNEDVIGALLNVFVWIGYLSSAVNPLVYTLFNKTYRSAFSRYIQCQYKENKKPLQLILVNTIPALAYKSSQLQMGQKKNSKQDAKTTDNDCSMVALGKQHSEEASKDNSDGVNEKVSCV
T1 sequence (P25021 whole entry): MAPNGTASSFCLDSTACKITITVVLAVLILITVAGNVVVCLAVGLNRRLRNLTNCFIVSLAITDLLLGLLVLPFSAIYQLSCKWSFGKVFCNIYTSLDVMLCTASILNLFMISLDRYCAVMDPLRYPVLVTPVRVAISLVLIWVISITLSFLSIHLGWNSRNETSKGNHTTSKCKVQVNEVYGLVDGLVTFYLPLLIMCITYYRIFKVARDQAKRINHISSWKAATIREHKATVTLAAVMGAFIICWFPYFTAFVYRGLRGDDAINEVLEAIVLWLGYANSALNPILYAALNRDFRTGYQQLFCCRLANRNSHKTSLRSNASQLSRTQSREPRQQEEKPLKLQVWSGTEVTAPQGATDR

COc1ccc(/C(C)=C/n2c3c(c4cc(Cl)ccc42)CCN(C)C3)cc1F [Compound 122, 6-chloro-9-(2-(3-fluoro-4-methoxyphenyl)prop-1-enyl)-2-methyl-2,3,4,9-tetrahydro-1H-pyrido[3,4-b]indole]
inhibition at 1 µM [1]: 56%
inhibition at 1 µM [2]: 95%
inhibition at 1 µM [3]: 102%
inhibition at 1 µM [4]: 13%
inhibition at 1 µM [5]: 21%
inhibition at 1 µM [6]: 95%
inhibition at 1 µM [7]: 36%

Cc1ccc2c(c1)c1c(n2C#Cc2ccc(Cl)cc2)CN(C)CC1 [Compound 130, 9-((4-chlorophenyl)ethynyl)-2,6-dimethyl-2,3,4,9-tetrahydro-1H-pyrido[3,4-b]indole]
inhibition at 1 µM [1]: 51%
inhibition at 1 µM [2]: 22%
inhibition at 1 µM [3]: 95%
inhibition at 1 µM [4]: 5%
inhibition at 1 µM [5]: -3%
inhibition at 1 µM [6]: 91%
inhibition at 1 µM [7]: 7%

COc1ccc(C#Cn2c3c(c4cc(Cl)ccc42)CCN(C)C3)cc1F [Compound 155, 6-chloro-9-((3-fluoro-4-methoxyphenyl)ethynyl)-2-methyl-2,3,4,9-tetrahydro-1H-pyrido[3,4-b]indole]
inhibition at 1 µM [1]: 49%
inhibition at 1 µM [2]: 19%
inhibition at 1 µM [3]: 95%
inhibition at 1 µM [4]: 2%
inhibition at 1 µM [5]: 12%
inhibition at 1 µM [6]: 85%
inhibition at 1 µM [7]: 14%

C/C(=C/n1c2c(c3cc(C)ccc31)CCN(C)C2C)c1ccc(Cl)cc1Cl (centres unmarked) [Compound 169]
inhibition at 1 µM [1]: 50%
inhibition at 1 µM [2]: 78%
inhibition at 1 µM [3]: 91%
inhibition at 1 µM [4]: 20%
inhibition at 1 µM [5]: 5%
inhibition at 1 µM [6]: 80%
inhibition at 1 µM [7]: 24%

CCC1c2c(c3cc(C)ccc3n2/C=C(\C)c2ccc(Cl)cc2Cl)CCN1C (centres unmarked) [Compound 170]
inhibition at 1 µM [1]: 60%
inhibition at 1 µM [2]: 74%
inhibition at 1 µM [3]: 98%
inhibition at 1 µM [4]: 27%
inhibition at 1 µM [5]: 1%
inhibition at 1 µM [6]: 96%
inhibition at 1 µM [7]: 36%

CCC1c2c(c3cc(Cl)ccc3n2C(=O)Cc2ccc(F)cc2)CCN1C (centres unmarked) [Compound 171]
inhibition at 1 µM [1]: 17%
inhibition at 1 µM [2]: 13%
inhibition at 1 µM [3]: 92%
inhibition at 1 µM [4]: 15%
inhibition at 1 µM [5]: 5%
inhibition at 1 µM [6]: 80%
inhibition at 1 µM [7]: 36%

Cc1ccc2c(c1)c1c(n2C#Cc2ccc(Cl)cc2)C(C)N(C)CC1 (centres unmarked) [Compound 172, 9-((4-chlorophenyl)ethynyl)-1,2,6-trimethyl-2,3,4,9-tetrahydro-1H-pyrido[3,4-b]indole]
inhibition at 1 µM [1]: 45%
inhibition at 1 µM [2]: 1%
inhibition at 1 µM [3]: 100%
inhibition at 1 µM [4]: 11%
inhibition at 1 µM [5]: 1%
inhibition at 1 µM [6]: 96%
inhibition at 1 µM [7]: 10%

Cc1ccc2c(c1)c1c(n2C(=O)Cc2ccc(Cl)cc2)CN(C)CC1 [Compound 173]
inhibition at 1 µM [1]: 49%
inhibition at 1 µM [2]: 81%
inhibition at 1 µM [3]: 90%
inhibition at 1 µM [4]: 12%
inhibition at 1 µM [5]: 22%
inhibition at 1 µM [6]: 95%
inhibition at 1 µM [7]: 48%

C/C(=C/n1c2c(c3cc(C)ccc31)CCN(C)C2C)c1ccc(F)c(F)c1 (centres unmarked) [Compound 175, 9-(2-(3,4-difluorophenyl)prop-1-enyl)-1,2,6-trimethyl-2,3,4,9-tetrahydro-1H-pyrido[3,4-b]indole]
inhibition at 1 µM [1]: 60%
inhibition at 1 µM [2]: 82%
inhibition at 1 µM [3]: 97%
inhibition at 1 µM [4]: 25%
inhibition at 1 µM [5]: 0%
inhibition at 1 µM [6]: 86%
inhibition at 1 µM [7]: 77%

CCC1c2c(c3cc(C)ccc3n2/C=C(\C)c2ccc(F)c(F)c2)CCN1C (centres unmarked) [Compound 176, (E)-9-(2-(3,4-difluorophenyl)prop-1-enyl)-1-ethyl-2,6-dimethyl-2,3,4,9-tetrahydro-1H-pyrido[3,4-b]indole]
inhibition at 1 µM [1]: 26%
inhibition at 1 µM [2]: 53%
inhibition at 1 µM [3]: 94%
inhibition at 1 µM [4]: 17%
inhibition at 1 µM [5]: -2%
inhibition at 1 µM [6]: 81%
inhibition at 1 µM [7]: 26%

CCC1c2c(c3cc(C)ccc3n2/C=C(\C)c2ccc(Cl)c(Cl)c2)CCN1C (centres unmarked) [Compound 177, 9-(2-(3,4-dichlorophenyl)prop-1-enyl)-1-ethyl-2,6-dimethyl-2,3,4,9-tetrahydro-1H-pyrido[3,4-b]indole]
inhibition at 1 µM [1]: 39%
inhibition at 1 µM [2]: 57%
inhibition at 1 µM [3]: 88%
inhibition at 1 µM [4]: 11%
inhibition at 1 µM [5]: 9%
inhibition at 1 µM [6]: 83%
inhibition at 1 µM [7]: 6%
